Results published in patent US9034874B2, “Carbamate/urea derivatives” (NOVARTIS AG, priority 2012, dated 2015).

Key:
human H3 receptors [1] = biological target: T1, human H3 receptors (Homo sapiens (Human), UniProt Q9Y5N1); assay: Affinity assessment: displacement of [3H]-N-α-Methylhistamine binding to membranes; conditions: membranes containing human H3 receptors, radioligand [3H]-N-α-Methylhistamine
Description: The affinity of compounds of the invention to the H3 receptor can be assessed by measuring displacement of binding of the radioligand [3H]-N-α-Methylhistamine (PerkinElmer, #NET1027250UC) to membranes containing human H3 receptors (PerkinElmer, #ES-392-M400UA; GenBank: NM_007232.2; Hill S J et al, International Union of Pharmacology XIII. Classification of histamine receptors, Pharmacol Rev, 49(3), 253-278, 1997).
2. Compound serial dilution: Dilution was performed by BioTek Precision on compound dilution plate. Compound concentrations start at 5 or 10 μM, 10 point dose titrations with 3- or 5-fold serial dilutions.
3. Preparation of 2× membrane solution (25 ml): 1.25 ml human Histamine H3 receptor stock, 23.75 ml assay buffer.
4. Preparation of 2× solution of [3H]-N-α-methylhistamine (25 ml): 4.27 μl [3H]-N-α-methylhistamine stock, 25 ml assay buffer.
5. Assemble binding reaction: (a) transfer 1 μl of compound solution, 1 μl 100% DMSO and 1 μl 1 M (R)(−)-α-Methylhistamine (Sigma, #H128) to the reaction plate at room temperature, (b) transfer 50 μl of 2× protein solution to reaction plate, (c) transfer 49 μl of 2× radioligand solution to reaction plate (Corning® 96 well EIA/RIA plate; Sigma, #CLS3797).
6. Cover the reaction plate with a TopSeal™-A film (Perkin Elmer, #6005185) and incubate at 28° C. for 120 min. Equilibrate Zeba Spin Desalting Plates (Thermo Scientific, #89808) to room temperature for 120 min.
7. Remove the sealing material from the bottom of the filtration plate. Place the plate on a wash plate. Centrifuge at 1000 g for 2 min to remove the storage buffer at room temperature.
8. Transfer 70 μl binding reaction from reaction plate into filtration plates. Place the filtration plates on top of collection plate. Centrifuge the plate assembly at 1000 g for 2 min to collect the protein with bound radioligand. Add 200 μl of Microscint-40 (PerkinElmer, #6013641-1L) to each well of the collection plate. Cover the plates with TopSeal™-A film.
9. Read the plates on Wallac Microbeta Trilux 2450, Instrument settings: counting mode: CPM, counting time: 2 min.
10. Data analysis: GraphPad Prism: log (compound concentration) vs. response; variable slope. The Ki is calculated based on Chang and Prusoff: Ki=IC50/{1+([radioligand]/Kd)}

human H3 receptors [2] = biological target: T1, human H3 receptors; assay: Potency assessment: blockade of (R)-alpha-methylhistamine-mediated cAMP production (LANCE Ultra cAMP kit); format: cell-based; conditions: CHO cells expressing human H3 receptors
Description: The potency of compounds of the invention as H3 receptor antagonists can be assessed by measuring the blockade of (R)-alpha-methylhistamine-mediated cAMP production utilizing a LANCE Ultra cAMP kit (PE #TRF0263) in CHO cells expressing human H3 receptors (GenBank: BC096840; Strausberg R L et al, Proc. Natl. Acad. Sci. U.S.A. 99(26), 16899-16903; 2002).
2. Preparation of assay plate: Different concentrations of the compounds of the invention (0.01-1000 nM), H3 positive controls and cAMP calibration standards; […] Forskolin (CALBIOCHEM #344270); 5 μM (R)-alpha-methylhistamine (H3 receptor agonist); 1% DMSO (SIGMA #D2650); total volume: 95 nl.
3. Preparation of the cell solution: Collect cells with stimulation buffer, final density: 100,000 cells/ml.
4. Reaction: (a) transfer 10 μl of cell solution to assay plate, (b) centrifuge at 600 rpm for 3 min and incubate 50 min at room temperature, (c) add 5 μL 4× Eu-cAMP tracer solution (60 μl Eu-cAMP tracer stock solution+2.94 ml cAMP detection buffer) and 5 μL 4× ULight™-anti-cAMP solution (20 μl […]+2.98 ml cAMP detection buffer) to assay plate.
5. Reading plate on EnVision: flash energy: 100%; excitation filter: 111 UV2 320; emission filter: 203 (Eu 615) and 205 (APC 665); number of laser flashes: 20; window: 100 μs; laser mirror module: 445 or 446; laser cycle: 16,600 μs.
6. Data analysis by GraphPad Prism: log (compound concentration) vs. response; variable slope.

tele-methylhistamine = assay: Effects on brain tele-methylhistamine levels; format: in vivo, rat; conditions: male Sprague-Dawley rats, oral, frontal cortex
Description: Compounds of the invention were dissolved in 20% 2-hydroxyl-beta-cyclodextran (HBC) and then sonicated briefly until there is little or no suspension in the solution. Animals (male Sprague-Dawley rats at the age of 8 weeks) were orally dosed with test compounds I hour or other longer time points before they were sacrificed using CO2.
A cardiac puncture was performed to collect blood sample from the cardiac cavity. The collected blood was immediately mixed with EDTA-K2 20 μl/ml to avoid blood clotting. The blood samples in tubes were then centrifuged (15 mim, 6000 rpm) and the plasma transferred to new tubes and then temporarily kept in dry ice until they were stored in a −70° C. freezer.
CSF collection: CSF samples were taken from the foramen magnum of the animal (using a #0.5 intravenous needle), and the CSF sample were kept in dry ice.
The rat brain were taken out of the skull and rinsed with ice-cold saline first. The frontal cortex was separated from the rest of the brain on top of a petri dish with ice underneath. The wet weight of the frontal cortex was weighed and recorded immediately. The frontal cortex sample was then kept in dry ice until they are transferred to a −70° C. freezer.
Bioanalytical Methods for Tele-Methyl Histamine and Compounds:
• Instrument: Agilent 6410, triple quadrupole mass spectrometer • Matrix: rat plasma, frontal cortex homogenate and cerebrospinal fluid (CSF) • Analyte: H3 compounds. • Internal standard: Dexamethasone HPLC Conditions Mobile Phase A: H2O—0.1% NH3.H2O: • Mobile phase B: MeOH-0.1% NH3.H2O • Column: Ultimate XB-C18 (2.1×50 mm, 5 μm) • Flow rate: 0.45 mL/min, temperature: 40° C. MS Conditions: • ESI: positive ion • MRM detection • Dexamethasone: [M+H]+m/z 393.3→373.2; CE: 4; Fragmentor: 110 Sample Preparation: Frontal Cortex:
the brain sample was homogenized for 2 min with 3 volumes (v/w) of homogenizing solution (EtOH:PBS=85:15), and then centrifuged at 12,000 rpm for 5 min. […]

T1 sequence (Q9Y5N1 whole entry): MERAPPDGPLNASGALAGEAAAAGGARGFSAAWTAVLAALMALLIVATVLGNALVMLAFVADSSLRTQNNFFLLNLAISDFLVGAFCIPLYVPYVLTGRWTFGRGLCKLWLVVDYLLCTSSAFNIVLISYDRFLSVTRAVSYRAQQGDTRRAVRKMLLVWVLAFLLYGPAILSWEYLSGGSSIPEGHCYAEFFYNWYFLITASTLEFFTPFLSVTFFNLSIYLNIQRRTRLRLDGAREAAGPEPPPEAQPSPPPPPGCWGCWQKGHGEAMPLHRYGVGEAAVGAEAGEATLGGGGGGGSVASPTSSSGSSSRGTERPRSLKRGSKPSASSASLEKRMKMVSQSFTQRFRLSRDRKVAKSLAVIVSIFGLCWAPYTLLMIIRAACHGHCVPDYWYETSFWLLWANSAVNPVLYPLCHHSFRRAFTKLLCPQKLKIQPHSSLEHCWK

Structure (SMILES) | Ki (human H3 receptors [1]) | Ki (human H3 receptors [2]) | % change in tele-methylhistamine brain levels for 10 mg/kg @ 1 h (tele-methylhistamine)
CC(C)N1CCN(C(=O)OC2CCN(c3ccc(=O)[nH]n3)CC2)CC1 [Example 1.3, 1-(6-oxo-1,6-dihydropyridazin-3-yl)piperidin-4-yl 4-isopropylpiperazine-1-carboxylate] | 10 nM | 1.2 nM | 115%
CC(C)N1CCN(C(=O)OC2CCN(c3ccc(=O)n(C)n3)CC2)CC1 [Example 1.2, 1-(1-methyl-6-oxo-1,6-dihydropyridazin-3-yl)piperidin-4-yl 4-isopropylpiperazine-1-carboxylate] | 31 nM | 2.4 nM | 138%
O=C(OC1CCN(c2ccc(=O)[nH]n2)CC1)N1CCN(C2CCC2)CC1 [Example 1.1, 1-(6-oxo-1,6-dihydropyridazin-3-yl)piperidin-4-yl 4-cyclobutylpiperazine-1-carboxylate] | 26 nM | 1.3 nM | 72%
